# Experimental data from PubChem BioAssay AID200 (DTP/NCI, 2004).
# Where “and” joins values, the source holds several entries; their conditions need not be identical. Equal entries are not always repeated. Inconclusive results and toxic doses are left out.
# Test system: B6C3F1 mice, B16 melanoma ip, median survival T/C
# Assay: NCI In Vivo Anticancer Drug Screen. Data for tumor model B16 Melanoma (intraperitoneal) in B6C3F1 mice
# Conditions: endpoint: median survival time, schedule: Q01DX009 (ip), higher = longer survival
# Procedure, shortened: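 Readout: survival or tumor size in treated mice relative to vehicle controls (T/C). Model uses transplantable tumors grown in mice.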
# [1] = dose: 12.5 mg/kg/injection, vehicle: saline with Tween-80
# [2] = dose: 25.0 mg/kg/injection, vehicle: saline with Tween-80
# [3] = dose: 50.0 mg/kg/injection, vehicle: saline with Tween-80
# [4] = dose: 100.0 mg/kg/injection, vehicle: saline with Tween-80
# [5] = dose: 200.0 mg/kg/injection, vehicle: saline with Tween-80
smiles,measurement,setting,value
CCCCOCN(COCCCC)C12CC3CC(CC(C3)C1)C2,T/C,[1],108 % of control and 107 % of control
same,T/C,[2],104 % of control and 105 % of control
same,T/C,[3],109 % of control and 100 % of control
same,T/C,[4],104 % of control and 106 % of control
same,T/C,[5],105 % of control
O=C1c2c(O)cccc2-c2nn(CCNCCO)c3ccc(NCCNCCO)c1c23,T/C,"dose: 2.75 mg/kg/injection, vehicle: water",250 % of control
same,T/C,"dose: 5.5 mg/kg/injection, vehicle: water",158 % of control
C[C@@](O)(/C=C/[C@H]1CC=CC(=O)O1)[C@@H](C[C@@H](O)\C=C/C=C\C=C\CO)OP(=O)(O)O,T/C,"dose: 3.12 mg/kg/injection, vehicle: other",98 % of control and 105 % of control
same,T/C,"dose: 6.25 mg/kg/injection, vehicle: other",110 % of control and 102 % of control
same,T/C,"dose: 12.5 mg/kg/injection, vehicle: other",101 % of control and 103 % of control
same,T/C,"dose: 25.0 mg/kg/injection, vehicle: other",99 % of control
NC(=O)c1[nH]nc(C2OC(CO)C(O)C2O)c1O (stereo not given),T/C,"dose: 0.13 mg/kg/injection, vehicle: saline",106 % of control
same,T/C,"dose: 0.25 mg/kg/injection, vehicle: saline",103 % of control
same,T/C,"dose: 0.5 mg/kg/injection, vehicle: saline",111 % of control
same,T/C,"dose: 1.0 mg/kg/injection, vehicle: saline",118 % of control
COc1ccc2c(c1O)-c1cccc3c1[C@@H](C2)N(CCCl)CC3,T/C,"dose: 1.0 mg/kg/injection, vehicle: Klucel (hydroxypropylcellulose) (HPC)",91 % of control and 100 % of control
same,T/C,"dose: 2.0 mg/kg/injection, vehicle: Klucel (hydroxypropylcellulose) (HPC)",100 % of control
same,T/C,"dose: 4.0 mg/kg/injection, vehicle: Klucel (hydroxypropylcellulose) (HPC)",97 % of control and 106 % of control
same,T/C,"dose: 8.0 mg/kg/injection, vehicle: Klucel (hydroxypropylcellulose) (HPC)",98 % of control and 102 % of control
COC1C(/C=C/C(C)=O)OC2OC(C)(C)OC21 (stereo not given),T/C,"dose: 6.25 mg/kg/injection, vehicle: saline",92 % of control and 94 % of control and 100 % of control
same,T/C,"dose: 12.5 mg/kg/injection, vehicle: saline",93 % of control and 97 % of control and 98 % of control
same,T/C,"dose: 25.0 mg/kg/injection, vehicle: saline",91 % of control and 96 % of control and 101 % of control
same,T/C,"dose: 50.0 mg/kg/injection, vehicle: saline",108 % of control and 87 % of control and 101 % of control
same,T/C,"dose: 100.0 mg/kg/injection, vehicle: saline",93 % of control and 103 % of control and 104 % of control
same,T/C,"dose: 200.0 mg/kg/injection, vehicle: saline",112 % of control
CCOC(=O)c1[nH]c2cccc3c2c1CC(Br)C3=O (stereo not given),T/C,"dose: 12.0 mg/kg/injection, vehicle: saline with Tween-80",98 % of control
same,T/C,[2],93 % of control
same,T/C,[3],100 % of control
CCOC(=O)Nc1cc2c(c(N)n1)N=C(CN(C)c1ccccc1)CN2,T/C,"dose: 0.78 mg/kg/injection, vehicle: Klucel (hydroxypropylcellulose) (HPC)",93 % of control
same,T/C,"dose: 1.56 mg/kg/injection, vehicle: Klucel (hydroxypropylcellulose) (HPC)",116 % of control
same,T/C,"dose: 3.12 mg/kg/injection, vehicle: Klucel (hydroxypropylcellulose) (HPC)",114 % of control
same,T/C,"dose: 6.25 mg/kg/injection, vehicle: Klucel (hydroxypropylcellulose) (HPC)",117 % of control
[NH-]C(CCC(N)=O)C(=O)O.[NH-]C(CCC(N)=O)C(=O)O.[Zn+2] (stereo not given),T/C,"dose: 6.25 mg/kg/injection, vehicle: saline with Tween-80",95 % of control
same,T/C,[1],93 % of control
same,T/C,[2],98 % of control
same,T/C,[3],90 % of control
COc1cc2c(c(OC)c1OC)-c1cccc(=O)cc1C(NC(C)=O)CC2 (stereo not given),T/C,"dose: 1.25 mg/kg/injection, vehicle: water",98 % of control
same,T/C,"dose: 2.5 mg/kg/injection, vehicle: saline",97 % of control
same,T/C,"dose: 2.5 mg/kg/injection, vehicle: water",102 % of control
same,T/C,"dose: 5.0 mg/kg/injection, vehicle: saline",100 % of control
same,T/C,"dose: 5.0 mg/kg/injection, vehicle: water",97 % of control
same,T/C,"dose: 10.0 mg/kg/injection, vehicle: saline",116 % of control
same,T/C,"dose: 10.0 mg/kg/injection, vehicle: water",96 % of control
same,T/C,"dose: 20.0 mg/kg/injection, vehicle: saline",99 % of control
same,T/C,"dose: 20.0 mg/kg/injection, vehicle: water",103 % of control
same,T/C,"dose: 40.0 mg/kg/injection, vehicle: saline",103 % of control
C/C=C1\C(=O)O[C@@]23C=C[C@H]4C(C(=O)OC)=CO[C@@H](O[C@H]12)[C@H]43,T/C,"dose: 3.75 mg/kg/injection, vehicle: Klucel (hydroxypropylcellulose) (HPC)",101 % of control
same,T/C,"dose: 7.5 mg/kg/injection, vehicle: Klucel (hydroxypropylcellulose) (HPC)",95 % of control
same,T/C,"dose: 15.0 mg/kg/injection, vehicle: Klucel (hydroxypropylcellulose) (HPC)",95 % of control
S=C(Nc1ccc(Cl)c(Cl)c1)N1c2ccccc2-n2cccc2C1c1cccnc1 (stereo not given),T/C,"dose: 12.5 mg/kg/injection, vehicle: Klucel (hydroxypropylcellulose) (HPC)",90 % of control and 98 % of control and 102 % of control
same,T/C,[1],99 % of control
same,T/C,"dose: 25.0 mg/kg/injection, vehicle: Klucel (hydroxypropylcellulose) (HPC)",91 % of control and 94 % of control and 98 % of control
same,T/C,[2],102 % of control
same,T/C,"dose: 50.0 mg/kg/injection, vehicle: Klucel (hydroxypropylcellulose) (HPC)",90 % of control and 104 % of control and 107 % of control
same,T/C,[3],99 % of control
same,T/C,"dose: 100.0 mg/kg/injection, vehicle: Klucel (hydroxypropylcellulose) (HPC)",88 % of control and 91 % of control and 97 % of control
same,T/C,[4],107 % of control
same,T/C,"dose: 200.0 mg/kg/injection, vehicle: Klucel (hydroxypropylcellulose) (HPC)",114 % of control and 90 % of control (2×)
same,T/C,[5],102 % of control
same,T/C,"dose: 400.0 mg/kg/injection, vehicle: Klucel (hydroxypropylcellulose) (HPC)",91 % of control
